Tests used:
[1] = Plasma protein binding rate, equilibrium dialysis (monkey plasma); assay type: in vitro ADME, cynomolgus monkeys; settings: c (cynomolgus monkey plasma), dialysis 4 hours at 37 °C, read-out: Unbound PPB%
Experimental: (§1) The protein binding rates of the compounds in the plasma of CD-1 mice, Sprague-Dawley rats, beagle dogs, cynomolgus monkeys, and human were determined using equilibrium dialysis method.
(§2) Commercially available plasma, dual-layer dialysis membrane, and equilibrium dialysis device.
(§3) The dual-layer dialysis membrane was soaked in ultrapure water for about 1 hour, removed and then divided into two parts. It was then soaked in an ethanol:water (20:80, v:v) solution for 20 minutes or placed at 2 to 8 °C, and it was valid for 1 month. Before starting the assay, the dialysis membrane was rinsed twice with ultrapure water and then soaked in ultrapure water for another 20 minutes for later use.
(§4) On the day of assay, the frozen plasma of CD-1 mice, Sprague-Dawley rats, beagle dogs, cynomolgus monkeys, and human was thawed in running cold tap water. After the plasma was completely thawed, the plasma was centrifuged at 3220×g for 5 minutes, and the suspended substances and precipitates in it were removed. The pH of the plasma was determined. The plasma with a pH in the range of 7.4 ± 0.1 was directly used, or the plasma with a pH in the range of 7.4 ± 0.1 after an adjustment with 1% phosphoric acid or 1M sodium hydroxide was used.
(§5) Preparation process of plasma samples: 597 µL of blank plasma from each of the above five species was taken, respectively. 3 µL of a compound or warfarin working solution was added, and the mixture was mixed thoroughly to give a plasma sample with a compound concentration of 2 µM and a warfarin concentration of 2 µM (n=1). The concentration of the organic phase DMSO was 0.5%. The sample was thoroughly mixed before proceeding to the next step.
(§6) Preparation process of T0 samples: 50 µL of a plasma sample containing the compound and warfarin was transferred to a sample receiving plate (n=3), and 50 µL of blank PBS was immediately added. Then, 500 µL of stop solution was added to the T0 sample of the compound and warfarin, and the mixture was stored at 2 to 8 °C, waiting to be processed later together with other dialysis-processed samples.
(§7) Dialysis process of plasma samples: 100 µL of a compound (2 µM) and warfarin (2 µM) plasma sample was added to the donor of each dialysis well (n=3), and 100 µL of blank PBS was added to the corresponding receiver of the dialysis well. The dialysis plate was placed in a 5% CO2 incubator, and incubated at 37 °C with shaking at approximately 100 rpm for 4 hours.
(§8) After the dialysis was completed, 50 µL of dialysis-processed PBS sample and dialysis-processed plasma sample (n=3) were transferred to a new 96-well plate (sample receiving plate). The corresponding volume of the corresponding blank plasma or PBS was added to the sample to make the final volume of each sample well 100 µL, with a plasma to PBS volume ratio of 1:1. All the samples were analyzed by LC-MS/MS after protein precipitation.
(§9) The formulas for calculating the unbound fraction (%Unbound), bound fraction (%Bound) and recovery fraction (%Recovery) of a compound are as follows: %Unbound = 100 ×F / T %Bound = 100 - %Unbound %Recovery = 100 ×(F + T)/ T0 wherein F is the concentration of the compound at the receiver of dialysis; T is the concentration of the compound at the supply end of dialysis; and T0 is the concentration of the compound in the plasma at time zero.

[2] = Stability in liver microsomes (dog); assay type: in vitro ADME, beagle dogs; settings: d (beagle dog liver microsomes), 0.5 mg/mL, read-out: MMS Clint
Experimental: The purpose of this study was to evaluate the phase I metabolic stability of the assay sample in liver microsomes from CD-1 mice, Sprague-Dawley (SD) rats, beagle dogs, cynomolgus monkeys, and human.
The animal and human liver microsomes used in this assay system were purchased from Xenotech, Corning, or other qualified suppliers.
Preparation of buffer: 73.21 g of potassium phosphate dibasic trihydrate and 10.78 g of potassium dihydrogen phosphate were dissolved in 4000 mL of ultrapure water. The pH of the solution was adjusted to the range of 7.40 ± 0.10 using 10.0% phosphoric acid or 1.00 M potassium hydroxide. Its final concentration was 100 mM.
Preparation of working solutions: An assay sample powder was prepared into a 10.0 mM stock solution with DMSO, and then further diluted with a suitable organic solvent. The control compounds testosterone, diclofenac, and propafenone were prepared into 10.0 mM stock solutions using DMSO, and then further diluted with a suitable organic solvent.
Preparation of liver microsome solution: Microsomes of various species were diluted with 100 mM potassium phosphate buffer to a working solution of 0.56 mg/mL. The final concentration of microsomes in the reaction system was 0.500 mg/mL. Detailed preparation procedures were described in the experimental records.
Preparation of reduced nicotinamide adenine dinucleotide phosphate (NADPH) solution: An appropriate amount of reduced nicotinamide adenine dinucleotide phosphate was dissolved in magnesium chloride solution, and the mixture was shaken to mix well. The final concentrations in the reaction system were 1.00 mM NADPH and 1.00 mM magnesium chloride, respectively. Detailed preparation procedures were described in the experimental records.
Preparation of stop solution: The stop solution was prepared using acetonitrile containing internal standards (tolbutamide and labetalol). The prepared stop solution was stored at 2.0 to 8.0 °C in a refrigerator. Detailed preparation procedures were described in the experimental records. […]

[3] = Plasma protein binding rate, equilibrium dialysis (dog plasma); assay type: in vitro ADME, beagle dogs; settings: d (beagle dog plasma), dialysis 4 hours at 37 °C, read-out: Unbound PPB%
Experimental: as §1, §2, §3, §4, §5, §6, §7, §8, §9

| Compound | fraction unbound at 4 h, 2 µM [1] | CLint scaled at 1 µM [2] [mL/min/kg] | fraction unbound at 4 h, 2 µM [3] |
| --- | --- | --- | --- |
| CC(C)(C)CC(=O)Nc1nc2c(F)cc(C#N)cn2c1-c1ccc(OC(F)(F)F)cc1 [Compound 1] | 0.072 | 16 | 0.046 |
| CC(C)(C)CC(=O)Nc1nc2c(F)cc(C#N)cn2c1C1=CCCC1 [Compound 3] | 0.134 | < 14 | 0.203 |
| CC(C)(C)CC(=O)Nc1nc2c(F)cc(C#N)cn2c1C12CC(C1)C2 [Compound 5] | 0.159 | < 13.8 | 0.278 |
